We go through 30 compounds from ChEMBL document CHEMBL4000148, “Design of novel dispirooxindolopyrrolidine and dispirooxindolopyrrolothiazole derivatives as potential antitubercular agents” (Bioorg Med Chem Lett, 2015).

Each structure is given as a SMILES string. In brackets after ≈: the same amount, converted by molar mass.

Data set [1] can be described thus: Cytotoxicity against mouse RAW264.7 cells assessed as inhibition of cell viability at 50 uM after 72 hrs by MTT assay relative to control. To be noted: read-out: INH. Format: cell-based. On the technique in general: Tetrazolium dyes change colour on reduction, which living cells bring about.
For data set [2], the system named is Mycobacterium tuberculosis. Description: Antitubercular activity against Mycobacterium tuberculosis H37Rv ATCC 27294 after 28 days by agar dilution method. It is filed as functional. To be noted: H37Rv ATCC 27294, 672 h.
Data set [3] has as its system Mycobacterium tuberculosis. Kind of data set: Potency index, ratio of ciprofloxacin MIC to compound MIC for Mycobacterium tuberculosis H37Rv ATCC 27294. Format: functional.
For data set [4], the system named is Mycobacterium tuberculosis. Description: Potency index, ratio of pyrazinamide MIC to compound MIC for Mycobacterium tuberculosis H37Rv ATCC 27294. Format: functional.

In the case of `CN1C[C@@H](c2ccc([N+](=O)[O-])cc2)[C@]2(C(=O)Oc3ccccc32)[C@@]12C(=O)Nc1ccccc12`, in data set [1], the cytotoxicity at 72 h, 50 µM turned out to be 29.5%. In data set [2], this compound gave a minimal inhibitory concentration (MIC) of 3.12 µg/mL (≈ 7.08 µM).
The compound `COc1ccc([C@@H]2[C@H]3CSCN3[C@]3(C(=O)Nc4ccc([N+](=O)[O-])cc43)[C@@]23C(=O)Oc2ccccc23)cc1` yielded a minimum inhibitory concentration (MIC) in data set [2] of 25 µg/mL (≈ 48.5 µM).
With `O=C1Oc2ccccc2[C@@]12[C@H](c1ccc(Br)cc1)[C@H]1CSCN1[C@]21C(=O)Nc2ccc(Br)cc21`, the cytotoxicity at 72 h, 50 µM in data set [1] came out at 32.4%. Moreover, 3.12 µg/mL (≈ 5.22 µM) was the least that counted as inhibitory in data set [2] (MIC).
In data set [2], `COc1ccc([C@@H]2[C@H]3CSCN3[C@]3(C(=O)Nc4ccc(Br)cc43)[C@@]23C(=O)Oc2ccccc23)cc1` showed an MIC of 50 µg/mL (≈ 91 µM).
In turn, `CC[C@@H](CO)NCCN[C@@H](CC)CO` [ETHAMBUTOL] had an MIC in data set [2] of 1.56 µg/mL (≈ 7.64 µM).
As for `COc1ccc([C@@H]2[C@H]3CSCN3[C@]3(C(=O)Nc4ccccc43)[C@@]23C(=O)Oc2ccccc23)cc1`, the cytotoxicity at 72 h, 50 µM in data set [1] was determined as 27.5%. The compound also gave a minimum inhibitory concentration (MIC) in data set [2] of 1.56 µg/mL (≈ 3.32 µM). Also, the Ratio came out at 2 in data set [3] and 4 in data set [4].
As to `Cc1ccc([C@@H]2[C@H]3CSCN3[C@]3(C(=O)Nc4ccccc43)[C@@]23C(=O)Oc2ccccc23)cc1`, the minimal inhibitory concentration (MIC) in data set [2] came to 12.5 µg/mL (≈ 27.5 µM).
As for `O=C1Oc2ccccc2[C@@]12[C@H](c1ccc([N+](=O)[O-])cc1)[C@H]1CSCN1[C@]21C(=O)Nc2ccc(Br)cc21`, the cytotoxicity at 72 h, 50 µM in data set [1] is 43.1%. In data set [2], this compound displayed a minimal inhibitory concentration (MIC) of 3.12 µg/mL (≈ 5.54 µM).
For the compound `COc1ccc([C@@H]2CN(C)[C@]3(C(=O)Nc4ccccc43)[C@@]23C(=O)Oc2ccccc23)cc1`, the MIC in data set [2] is 12.5 µg/mL (≈ 29.3 µM).
Compound `Cc1ccc([C@@H]2[C@H]3CSCN3[C@]3(C(=O)Nc4ccc([N+](=O)[O-])cc43)[C@@]23C(=O)Oc2ccccc23)cc1` yielded a minimal inhibitory concentration (MIC) in data set [2] of over 25 µg/mL.
Take `O=C1Oc2ccccc2[C@@]12[C@H](c1ccccc1)[C@H]1CSCN1[C@]21C(=O)Nc2ccc([N+](=O)[O-])cc21`: in data set [1], the cytotoxicity at 72 h, 50 µM amounted to 35.2%. The lowest concentration to inhibit growth in data set [2] (MIC) was 3.12 µg/mL (≈ 6.44 µM).
Turning to `O=C1Oc2ccccc2[C@@]12[C@H](c1ccc(Cl)cc1)[C@H]1CSCN1[C@]21C(=O)Nc2ccc(Br)cc21`, the cytotoxicity at 72 h, 50 µM in data set [1] is 34.6%. Further, in data set [2], inhibition of growth (MIC) required 3.12 µg/mL (≈ 5.64 µM).
On to `CN1C[C@@H](c2ccccc2)[C@]2(C(=O)Oc3ccccc32)[C@@]12C(=O)Nc1ccccc12`, for which the MIC in data set [2] came to 12.5 µg/mL (≈ 31.5 µM).
Consider `O=C1Oc2ccccc2[C@@]12[C@H](c1ccc(Cl)cc1)[C@H]1CSCN1[C@]21C(=O)Nc2ccccc21`, for which the cytotoxicity at 72 h, 50 µM in data set [1] stood at 32.3%. Moreover, in data set [2], 3.12 µg/mL (≈ 6.58 µM) was the least that counted as inhibitory (MIC).
On to `O=C1Oc2ccccc2[C@@]12[C@H](c1ccccc1)[C@H]1CSCN1[C@]21C(=O)Nc2ccccc21`, for which the MIC in data set [2] came to 25 µg/mL (≈ 56.8 µM).
Turning to `CN1C[C@@H](c2ccc(Cl)cc2)[C@]2(C(=O)Oc3ccccc32)[C@@]12C(=O)Nc1ccccc12`, the cytotoxicity at 72 h, 50 µM in data set [1] stood at 30.1%. This compound also yielded a minimum inhibitory concentration (MIC) in data set [2] of 6.25 µg/mL (≈ 14.5 µM).
In turn, `O=C1Oc2ccccc2[C@@]12[C@H](c1ccc([N+](=O)[O-])cc1)[C@H]1CSCN1[C@]21C(=O)Nc2ccc([N+](=O)[O-])cc21` displayed an MIC in data set [2] of 50 µg/mL (≈ 94.2 µM).
As to `Cc1ccc([C@@H]2[C@H]3CSCN3[C@]3(C(=O)Nc4ccc(Br)cc43)[C@@]23C(=O)Oc2ccccc23)cc1`, the MIC in data set [2] was determined as 12.5 µg/mL (≈ 23.4 µM). Against the preceding compound, the MIC is about 4-fold lower.
With `NNC(=O)c1ccncc1` [ISONIAZID], in data set [2], the minimal inhibitory concentration (MIC) is 0.05 µg/mL (≈ 0.365 µM).
As for `CSc1ccc([C@@H]2[C@H]3CSCN3[C@]3(C(=O)Nc4ccc(Br)cc43)[C@@]23C(=O)Oc2ccccc23)cc1`, the cytotoxicity at 72 h, 50 µM in data set [1] worked out at 28.1%. In data set [2], this compound displayed an MIC of 6.25 µg/mL (≈ 11.1 µM).
For the compound `NC(=O)c1cnccn1` [PYRAZINAMIDE], in data set [2], the minimum inhibitory concentration (MIC) is 6.25 µg/mL (≈ 50.8 µM).
In the case of `O=C1Oc2ccccc2[C@@]12[C@H](c1ccc([N+](=O)[O-])cc1)[C@H]1CSCN1[C@]21C(=O)Nc2ccccc21`, the cytotoxicity at 72 h, 50 µM in data set [1] was 20.7%. Also, the MIC in data set [2] is 1.56 µg/mL (≈ 3.21 µM). The Ratio in data set [3] is reported as 2; in data set [4] it was 4.
Take `CSc1ccc([C@@H]2[C@H]3CSCN3[C@]3(C(=O)Nc4ccccc43)[C@@]23C(=O)Oc2ccccc23)cc1`: inhibition of growth in data set [2] (MIC) required 12.5 µg/mL (≈ 25.7 µM).
As for `CSc1ccc([C@@H]2[C@H]3CSCN3[C@]3(C(=O)Nc4ccc([N+](=O)[O-])cc43)[C@@]23C(=O)Oc2ccccc23)cc1`, the minimal inhibitory concentration (MIC) in data set [2] was determined as 12.5 µg/mL (≈ 23.5 µM).
With `O=C1Oc2ccccc2[C@@]12[C@H](c1ccc(Br)cc1)[C@H]1CSCN1[C@]21C(=O)Nc2ccc([N+](=O)[O-])cc21`, inhibition of growth in data set [2] (MIC) required 12.5 µg/mL (≈ 22.1 µM).
Take `O=C1Oc2ccccc2[C@@]12[C@H](c1ccc(Br)cc1)[C@H]1CSCN1[C@]21C(=O)Nc2ccccc21`: the cytotoxicity at 72 h, 50 µM in data set [1] turned out to be 28.5%. In data set [2], this compound showed an MIC of 3.12 µg/mL (≈ 6.02 µM).
As for `CSc1ccc([C@@H]2CN(C)[C@]3(C(=O)Nc4ccccc43)[C@@]23C(=O)Oc2ccccc23)cc1`, the cytotoxicity at 72 h, 50 µM in data set [1] amounted to 28.7%. The same compound had an MIC in data set [2] of 3.12 µg/mL (≈ 7.06 µM).
In turn, `CO[C@H]1/C=C/O[C@@]2(C)Oc3c(C)c(O)c4c(O)c(c(/C=N/N5CCN(C)CC5)c(O)c4c3C2=O)NC(=O)/C(C)=C\C=C\[C@H](C)[C@H](O)[C@@H](C)[C@@H](O)[C@@H](C)[C@H](OC(C)=O)[C@@H]1C` [RIFAMPIN] returned a minimal inhibitory concentration (MIC) in data set [2] of 0.1 µg/mL (≈ 0.122 µM).
For `O=C(O)c1cn(C2CC2)c2cc(N3CCNCC3)c(F)cc2c1=O` [CIPROFLOXACIN], it took 3.13 µg/mL (≈ 9.45 µM) to inhibit growth in data set [2] (MIC).
On to `O=C1Oc2ccccc2[C@@]12[C@H](c1ccccc1)[C@H]1CSCN1[C@]21C(=O)Nc2ccc(Br)cc21`, for which the MIC in data set [2] came to 25 µg/mL (≈ 48.1 µM).

In general, MIC refers to the lowest concentration found to suppress growth.
